Like-named read-outs stand apart in the source and are kept apart here.
Tests used:
[1] = tested on: human neonatal dermal fibroblast; conditions: for percentage of the viable cell: human, 24 h; for fluorescent intensity of Alamar Blue / effect on cell damage, in words: UV-A 9 J/cm^2, FIG. 4; for fluorescent intensity of Alamar Blue: without irradiation 794, negative control 140; for effect on cell damage, in words: pre-irradiation addition
Description: (§1) The cell employed was a commercially available human neonatal dermal fibroblast (Cryo NHDF-Neo, Sanko-Junyaku Co., Ltd.). This cell was inoculated at 2×10^5 cells/mL to a commercially available culture dish of 35 mm in diameter (BD FALCON 353001, Becton Dickinson Japan), where it was cultured in a commercially available cell culture medium (D-MEM (1 g/L glucose, Wako Pure Chemical Industries, Ltd.) supplemented with 10% fetal bovine serum (hereinafter, referred to as “normal medium”). The cell described above may be cultured in the normal medium described above supplemented with an antibiotic (15240-062, Gibco) at 1%. This cell was cultured for about 24 hours in a 5% CO2 and saturated water vapor atmosphere at 37° C. (degrees Celsius).
(§2) Thereafter, the culture medium for culturing the cell described above was switched to 1 mL of a BSO medium supplemented with a glutathione biosynthesis inhibitor BSO (L-buthionine-(S,R)-sulfoximine, Wako Pure Chemical Industries, Ltd.) at 1×10^−3%, where the culture was conducted for about 24 hours in a 5% CO2 and saturated water vapor atmosphere at 37° C. (degrees Celsius). The BSO medium described above was prepared by a 200-fold dilution of a stock solution containing 0.2% BSO dissolved in ethyl alcohol with the normal medium described above.
For determining the effect of adding methionine before ultraviolet irradiation (hereinafter, referred to as “pre-irradiation addition of methionine”), the culture medium was switched to a BSO medium added with 0.0001 to 100 (micro-molar) L-methionine (131-01603, Wako Pure Chemical Industries Ltd.) or D-methionine (2807, Peptide Institute Inc.) 24 hours before the irradiation. The ultraviolet irradiation after switching into a medium added with 0.1 μM (micro-molar) D-proline (165-14671, Wako Pure Chemical Industries Ltd.) was employed as a positive control, while the ultraviolet irradiation to the medium still being free of such an added amino acid was employed as a negative control.
(§3) […] was dissolved in a distilled water at 2×10^−3%, and the resultant solution was subjected to a 200-fold dilution (final concentration: 1×10^−5%) with a phosphate buffered saline PBS (+) containing calcium ion and magnesium ion to obtain a medium (hereinafter, referred to as “UV irradiation medium”), which was warmed preliminarily to 37° C. before use.
(§4) Before UV-A irradiation, the culture medium was replaced with 1 mL of the UV irradiation medium described above. […] The UV dose was measured using UV RADIOMETER UVR-3036/S (Topcon Corporation).
(§5) Thereafter, the culture medium was supplemented with Alamar Blue (trade mark, Biosource, Biosource International Inc. and Invitrogen) at a final concentration of […], and its supernatant was determined for the fluorescent intensity three hours later with an excitation wavelength of 544 nm and a fluorescent wavelength of 590 nm as described by Ahmed S. A. et al. J. Immunol. Method. 170, 211-224 (1994)) and in accordance with the manufacture's instruction. The percentage of the viable cell was obtained as a percentage of a quotient calculated by dividing the fluorescent intensity of Alamar Blue under each experimental condition by the fluorescent intensity in the negative control group containing no added amino acid.
(§6) the cell culture, the addition of amino acids before the UV irradiation, the UV irradiation, the addition of amino acids after the UV irradiation and the cell damage measurement were conducted similarly to Example 1. The ultraviolet light (UV-A) was irradiated at 7.5 or 9 J/cm^2.

[2] = tested on: human neonatal dermal fibroblast; assay: UV-A irradiation-induced cell damage, amino acid added after irradiation (Alamar Blue); assay type: cell-based; conditions: for percentage of the viable cell: UV-A 8 J/cm^2, FIG. 3; for fluorescent intensity of Alamar Blue: without irradiation 764, negative control 348
Description: as §1, §2, §3, §4
After UV-A irradiation at 8 J/cm^2, the medium was returned to the normal medium described above, and the culture was conducted in a 5% CO2 and saturated water vapor atmosphere at 37° C. (degrees Celsius) for 40 hours. For determining the effect of adding methionine after UV irradiation (hereinafter, referred to as “post-irradiation addition of methionine”), this 40-hour cultured medium was added with 0.001 to 100 μM (micro-molar) L- or D-methionine. The ultraviolet irradiation after switching into a medium added with 0.1 μM (micro-molar) D-proline was employed as a positive control, while the ultraviolet irradiation to the medium still being free of such an added amino acid was employed as a negative control.
as §5, §6

[3] = post-irradiation addition 0.1 μM
[4] = pre-irradiation addition 0.1 μM
[5] = post-irradiation addition 0.1 μM, UV-A 7.5 J/cm^2, FIG. 6

SMILES	percentage of the viable cell ([1]; 0.0001 μM)	percentage of the viable cell ([1]; 0.01 μM)	percentage of the viable cell ([1]; 1 μM)	percentage of the viable cell ([1]; 10 μM)	percentage of the viable cell ([1]; 100 μM)	percentage of the viable cell [2, 3]	fluorescent intensity of Alamar Blue [1, 4]	fluorescent intensity of Alamar Blue [2, 5]	fluorescent intensity of Alamar Blue ([1]; pre-irradiation addition 1 μM)	fluorescent intensity of Alamar Blue ([1]; pre-irradiation addition 10 μM)	effect on cell damage, in words [1]	other results
CSCC[C@@H](N)C(=O)O [D-methionine]	50%	102%	97%	114%	76%	84%						percentage of the viable cell ([2]; post-irradiation addition 0.01 μM): 93%; percentage of the viable cell ([2]; post-irradiation addition 1 μM): 82%; percentage of the viable cell ([2]; post-irradiation addition 10 μM): 81%; percentage of the viable cell ([2]; post-irradiation addition 100 μM): about 87%
O=C(O)[C@H]1CCCN1 [D-proline, reference compound]						82%	610	579				
N[C@H](CO)C(=O)O [D-serine]	74%	92%		93%			402	735	371	491	statistically significant increase in the fluorescent intensity	fluorescent intensity of Alamar Blue ([1]; pre-irradiation addition 0.01 μM): 445; fluorescent intensity of Alamar Blue ([2]; post-irradiation addition 0.01 μM, UV-A 7.5 J/cm^2, FIG. 6): 697; fluorescent intensity of Alamar Blue ([2]; post-irradiation addition 1 μM, UV-A 7.5 J/cm^2, FIG. 6): 742; fluorescent intensity of Alamar Blue ([2]; post-irradiation addition 10 μM, UV-A 7.5 J/cm^2, FIG. 6): 664; fluorescent intensity of Alamar Blue ([2]; post-irradiation addition 100 μM, UV-A 7.5 J/cm^2, FIG. 6): 663; effect on cell damage, in words ([2]; post-irradiation addition, UV-A 7.5 J/cm^2, FIG. 6): statistically significant increase in the fluorescent intensity
CSCC[C@H](N)C(=O)O [L-methionine]		72%	45%	73%	62%							percentage of the viable cell ([1]; 0.001 μM): 40%; percentage of the viable cell ([1]; 0.1 μM): 67%
N[C@@H](CO)C(=O)O [L-serine, reference compound]							265		227	270	almost no reduction in the cell damage	
